Reference: ChEMBL document CHEMBL4765306, “Design, synthesis and biological evaluation of novel naturally-inspired multifunctional molecules for the management of Alzheimer's disease” (Eur J Med Chem, 2020)
Active and inactive are the calls of the source. The rule behind the calls is not given here.

Tests used:
Mus musculus [1] = test: Memory enhancement effect in scopolamine-induced Swiss albino mouse model of amnesia assessed as effect on total arm entries at 5 mg/kg, po administered for 7 days and observed after 30 mins before scopolamine treatment and measured after 15 mins by Y-maze test; assay type: functional, organism-based; settings: time 7.0 day
Mus musculus [2] = test: Memory enhancement effect in scopolamine-induced Swiss albino mouse model of amnesia assessed as increase in spontaneous alteration at 5 mg/kg, po administered for 7 days and observed after 30 mins before scopolamine treatment and measured after 15 mins by Y-maze test; assay type: functional, organism-based; settings: time 7.0 day
Homo sapiens = organism: Homo sapiens; test: Disruption of human amyloid beta 1 to 42 assessed as effect on amyloid beta 1 to 42 morphology at 1.58 uM incubated for 10 days by atomic force microscopic analysis; settings: time 10.0 day
Acetylcholinesterase [3] = target: T1, Acetylcholinesterase (Homo sapiens, UniProt P22303); test: Inhibition of recombinant human erythrocyte AChE using acetylthiocholine iodide as substrate preincubated for 30 mins followed by substrate addition and measured after 30 mins by spectrophotometry based Ellman's method
[4] = target: Cholinesterase (Equus caballus) (UniProt P81908); test: Inhibition of […] equine serum BuChE at 20 uM using butyryl thiocholine iodide as substrate preincubated for 30 mins followed by substrate addition and measured after 30 mins by spectrophotometry based Ellman's method relative to control; assay type: cell-free; settings: time 60.0 min
[5] = Metal chelating activity assessed as Fe3+-compound complex formation at 300 uM measured for 30 mins by UV-Visible spectrophotometric method
[6] = Cytotoxicity against human SH-SY5Y cells assessed as reduction in cell viability at 20 uM incubated for 24 hrs by MTT assay; assay type: cell-based; settings: read-out: INH
Mus musculus [7] = test: Ex vivo antioxidant activity in brain of scopolamine-induced Swiss albino mouse model of amnesia assessed as increase in CAT level at 6.25 to 25 mg/kg, po administered for 7 days and observed after 30 mins before scopolamine treatment and measured after 15 mins; assay type: functional, organism-based; settings: dose 6.25-25 mg/kg, time 7.0 day
Mus musculus [8] = test: Memory enhancement effect in scopolamine-induced Swiss albino mouse model of amnesia assessed as increase in spontaneous alteration at 6.25 to 25 mg/kg, po administered for 7 days and observed after 30 mins before scopolamine treatment and measured after 15 mins by Y-maze test; assay type: functional, organism-based; settings: dose 6.25-25 mg/kg, time 7.0 day
[9] = Acute toxicity in Swiss albino mouse assessed as organism death at 500 mg/kg, po administered once and observed for 14 days; assay type: organism-based; settings: in vivo, 336 h, time 14 day
[10] = Metal chelating activity assessed as Fe3+-compound complex formation at 300 uM measured for 30 mins by MS-MS analysis
[11] = Acute toxicity in Swiss albino mouse assessed as abnormal behaviour at 500 mg/kg, po administered once and observed for 14 days; assay type: organism-based; settings: in vivo, 336 h, time 14 day
[12] = Antioxidant activity assessed as DPPH radical scavenging activity incubated for 25 mins in shaker; assay type: functional
Mus musculus [13] = test: Ex vivo antioxidant activity in brain of scopolamine-induced Swiss albino mouse model of amnesia assessed as decrease in MDA level at 6.25 to 25 mg/kg, po administered for 7 days and observed after 30 mins before scopolamine treatment and measured after 15 mins; assay type: functional, organism-based; settings: dose 6.25-25 mg/kg, time 7.0 day
Mus musculus [14] = test: Ex vivo inhibition of BChE in brain of scopolamine-induced Swiss albino mouse model of amnesia at 6.25 to 25 mg/kg, po administered for 7 days and observed after 30 mins before scopolamine treatment and measured after 15 mins using butyryl thiocholine iodide as substrate by Ellman's method; assay type: functional, organism-based; settings: dose 6.25-25 mg/kg, time 7.0 day
[15] = Acute toxicity in Swiss albino mouse assessed as effect on food consumption at 500 mg/kg, po administered once and observed for 14 days; assay type: organism-based; settings: in vivo, 336 h, time 14 day
Mus musculus [16] = test: Memory enhancement effect in scopolamine-induced Swiss albino mouse model of amnesia assessed as effect on total arm entries at 6.25 to 25 mg/kg, po administered for 7 days and observed after 30 mins before scopolamine treatment and measured after 15 mins by Y-maze test; assay type: functional, organism-based; settings: dose 6.25-25 mg/kg, time 7.0 day
[17] = target: Cholinesterase (Equus caballus) (UniProt P81908); test: Mixed-type inhibition of […] equine serum BuChE at 7.5 to 30 uM using butyryl thiocholine iodide as substrate preincubated for 30 mins followed by substrate addition and measured after 30 mins by Lineweaver-burk plot analysis; assay type: cell-free; settings: dose 7.5-30 µM, time 60.0 min
Cholinesterase = Cholinesterase (Equus caballus, UniProt P81908); test: Inhibition of […] equine serum BuChE using butyryl thiocholine iodide as substrate preincubated for 30 mins followed by substrate addition and measured after 30 mins by spectrophotometry based Ellman's method; assay type: cell-free
[18] = Acute toxicity in Swiss albino mouse assessed as effect on body weight at 500 mg/kg, po administered once and observed for 14 days; assay type: organism-based; settings: in vivo, 336 h, time 14 day
[19] = Antioxidant activity assessed as DPPH radical scavenging activity at 20 uM incubated for 25 mins in shaker relative to control; assay type: functional
[20] = Acute toxicity in Swiss albino mouse assessed as effect on water consumption at 500 mg/kg, po administered once and observed for 14 days; assay type: organism-based; settings: in vivo, 336 h, time 14 day
Acetylcholinesterase [21] = target: T1, Acetylcholinesterase; test: Non-competitive inhibition of recombinant human erythrocyte AChE at 1 to 10 uM using acetylthiocholine iodide as substrate preincubated for 30 mins followed by substrate addition and measured after 30 mins by Lineweaver-burk plot analysis; settings: dose 1-10 µM, time 60.0 min
Mus musculus [22] = test: Ex vivo antioxidant activity in brain of scopolamine-induced Swiss albino mouse model of amnesia assessed as increase in SOD level at 6.25 to 25 mg/kg, po administered for 7 days and observed after 30 mins before scopolamine treatment and measured after 15 mins; assay type: functional, organism-based; settings: dose 6.25-25 mg/kg, time 7.0 day
[23] = Acute toxicity in Swiss albino mouse assessed as liver damage at 500 mg/kg, po administered once and observed after 14 days by microscopic analysis; assay type: organism-based; settings: in vivo, 336 h, time 14 day
Mus musculus [24] = test: Ex vivo inhibition of AChE in brain of scopolamine-induced Swiss albino mouse model of amnesia at 6.25 to 25 mg/kg, po administered for 7 days and observed after 30 mins before scopolamine treatment and measured after 15 mins using acetylthiocholine iodide as substrate by Ellman's method; assay type: functional, organism-based; settings: dose 6.25-25 mg/kg, time 7.0 day
Mus musculus [25] = test: Ex vivo antioxidant activity in brain of scopolamine-induced Swiss albino mouse model of amnesia assessed as increase in SOD level at 12.5 to 25 mg/kg, po administered for 7 days and observed after 30 mins before scopolamine treatment and measured after 15 mins; assay type: functional, organism-based; settings: dose 12.5-25 mg/kg, time 7.0 day
Mus musculus [26] = test: Ex vivo antioxidant activity in brain of scopolamine-induced Swiss albino mouse model of amnesia assessed as increase in CAT level at 12.5 to 25 mg/kg, po administered for 7 days and observed after 30 mins before scopolamine treatment and measured after 15 mins; assay type: functional, organism-based; settings: dose 12.5-25 mg/kg, time 7.0 day
Mus musculus [27] = test: Ex vivo inhibition of BChE in brain of scopolamine-induced Swiss albino mouse model of amnesia at 12.5 to 25 mg/kg, po administered for 7 days and observed after 30 mins before scopolamine treatment and measured after 15 mins using butyryl thiocholine iodide as substrate by Ellman's method; assay type: functional, organism-based; settings: dose 12.5-25 mg/kg, time 7.0 day
Acetylcholinesterase [28] = target: T1, Acetylcholinesterase; test: Inhibition of recombinant human erythrocyte AChE at 20 uM using acetylthiocholine iodide as substrate preincubated for 30 mins followed by substrate addition and measured after 30 mins by spectrophotometry based Ellman's method relative to control; settings: time 60.0 min
Acetylcholinesterase [29] = target: T1, Acetylcholinesterase; test: Inhibition of AChE (unknown origin) at 20 uM relative to control
Mus musculus [30] = test: Memory enhancement effect in scopolamine-induced Swiss albino mouse model of amnesia assessed as effect on total arm entries at 12.5 to 25 mg/kg, po administered for 7 days and observed after 30 mins before scopolamine treatment and measured after 15 mins by Y-maze test; assay type: functional, organism-based; settings: dose 12.5-25 mg/kg, time 7.0 day
Mus musculus [31] = test: Memory enhancement effect in scopolamine-induced Swiss albino mouse model of amnesia assessed as increase in spontaneous alteration at 12.5 to 25 mg/kg, po administered for 7 days and observed after 30 mins before scopolamine treatment and measured after 15 mins by Y-maze test; assay type: functional, organism-based; settings: dose 12.5-25 mg/kg, time 7.0 day
Mus musculus [32] = test: Ex vivo inhibition of AChE in brain of scopolamine-induced Swiss albino mouse model of amnesia at 12.5 to 25 mg/kg, po administered for 7 days and observed after 30 mins before scopolamine treatment and measured after 15 mins using acetylthiocholine iodide as substrate by Ellman's method; assay type: functional, organism-based; settings: dose 12.5-25 mg/kg, time 7.0 day
Mus musculus [33] = test: Ex vivo antioxidant activity in brain of scopolamine-induced Swiss albino mouse model of amnesia assessed as decrease in MDA level at 12.5 to 25 mg/kg, po administered for 7 days and observed after 30 mins before scopolamine treatment and measured after 15 mins; assay type: functional, organism-based; settings: dose 12.5-25 mg/kg, time 7.0 day
[34] = target: Cholinesterase (Homo sapiens) (UniProt P06276); test: Inhibition of BuChE (unknown origin) at 20 uM relative to control
Chain of Cholinesterase (Homo sapiens) (P06276 whole entry): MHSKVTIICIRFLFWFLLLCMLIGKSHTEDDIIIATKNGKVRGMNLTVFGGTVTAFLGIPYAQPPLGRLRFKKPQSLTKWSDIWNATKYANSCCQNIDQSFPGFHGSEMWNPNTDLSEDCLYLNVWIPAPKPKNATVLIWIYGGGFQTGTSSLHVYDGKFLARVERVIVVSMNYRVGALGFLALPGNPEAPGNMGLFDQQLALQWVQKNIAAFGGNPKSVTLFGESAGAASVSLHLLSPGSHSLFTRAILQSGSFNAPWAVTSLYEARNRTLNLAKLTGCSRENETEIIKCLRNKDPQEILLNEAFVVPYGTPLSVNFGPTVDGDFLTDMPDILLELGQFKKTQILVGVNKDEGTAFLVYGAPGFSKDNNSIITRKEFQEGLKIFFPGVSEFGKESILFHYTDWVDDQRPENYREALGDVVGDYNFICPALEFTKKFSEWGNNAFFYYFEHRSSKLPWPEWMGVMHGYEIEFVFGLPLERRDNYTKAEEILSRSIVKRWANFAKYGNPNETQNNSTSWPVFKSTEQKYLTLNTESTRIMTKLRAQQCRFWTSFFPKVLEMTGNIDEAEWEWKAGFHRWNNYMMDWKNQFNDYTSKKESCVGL

Chain of Cholinesterase (Equus caballus) (P81908 whole entry): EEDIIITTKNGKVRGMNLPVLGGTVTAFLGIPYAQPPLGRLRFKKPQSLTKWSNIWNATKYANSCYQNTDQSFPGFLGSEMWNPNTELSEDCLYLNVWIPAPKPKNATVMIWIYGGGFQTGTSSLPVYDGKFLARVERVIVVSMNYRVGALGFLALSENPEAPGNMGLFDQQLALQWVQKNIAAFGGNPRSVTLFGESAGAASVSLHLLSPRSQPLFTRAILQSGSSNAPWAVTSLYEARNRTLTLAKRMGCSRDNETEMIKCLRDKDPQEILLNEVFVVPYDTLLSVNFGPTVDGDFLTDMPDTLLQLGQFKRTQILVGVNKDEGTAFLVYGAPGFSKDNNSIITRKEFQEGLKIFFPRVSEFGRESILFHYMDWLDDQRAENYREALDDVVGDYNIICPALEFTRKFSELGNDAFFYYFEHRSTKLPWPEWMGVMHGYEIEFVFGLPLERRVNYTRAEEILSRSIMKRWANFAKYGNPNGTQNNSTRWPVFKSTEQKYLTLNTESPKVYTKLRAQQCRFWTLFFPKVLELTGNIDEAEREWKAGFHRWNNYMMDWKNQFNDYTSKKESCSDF
T1 sequence (P22303 whole entry): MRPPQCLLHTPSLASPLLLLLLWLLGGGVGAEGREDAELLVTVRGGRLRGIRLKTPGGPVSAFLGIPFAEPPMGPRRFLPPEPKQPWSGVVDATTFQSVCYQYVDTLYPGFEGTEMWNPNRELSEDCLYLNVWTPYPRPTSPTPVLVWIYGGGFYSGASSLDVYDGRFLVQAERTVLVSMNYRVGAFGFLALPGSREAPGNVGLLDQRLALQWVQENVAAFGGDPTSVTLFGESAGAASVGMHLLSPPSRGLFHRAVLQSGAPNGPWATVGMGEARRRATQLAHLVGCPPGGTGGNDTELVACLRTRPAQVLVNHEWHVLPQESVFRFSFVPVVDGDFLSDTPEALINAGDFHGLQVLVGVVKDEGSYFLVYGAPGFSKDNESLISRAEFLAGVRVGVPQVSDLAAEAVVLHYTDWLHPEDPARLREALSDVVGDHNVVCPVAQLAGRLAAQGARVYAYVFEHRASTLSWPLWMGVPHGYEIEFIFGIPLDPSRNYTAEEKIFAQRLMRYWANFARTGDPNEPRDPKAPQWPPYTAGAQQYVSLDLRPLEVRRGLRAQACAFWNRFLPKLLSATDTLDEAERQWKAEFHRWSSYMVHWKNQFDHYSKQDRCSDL
Chain of Cholinesterase (P81908 whole entry): as the sequence (P81908 whole entry) above

For COc1cc2c(cc1OC)C(=O)C(CC1CCN(Cc3ccccc3)CC1)C2 (centres undefined), the Activity (Mus musculus [1]) was “Active”, the Activity (Mus musculus [2]) was “Active” and the Activity (Homo sapiens) was “inactive”.

COc1cc(/C=C/C(=O)NCC(=O)Nc2ccccc2OC)ccc1O gave an IC50 (Acetylcholinesterase [3]) of 5.75 µM and an inhibition [4] of 43.3%.

COc1ccc(N2CCN(C(=O)/C=C/c3ccc(O)c(OC)c3)CC2)cc1 gave an IC50 (Acetylcholinesterase [3]) of 12 µM and an inhibition [4] of 44.7%.

Work on COc1cc(/C=C/C(=O)NCC(=O)Nc2cccc(C(F)(F)F)c2)ccc1O yielded an IC50 (Acetylcholinesterase [3]) of 9.31 µM and an inhibition [4] of 34.9%.

COc1cc(/C=C/C(=O)N2CCN(c3ccc(Cl)cc3)CC2)ccc1O gave an IC50 (Acetylcholinesterase [3]) of 11.1 µM and an inhibition [4] of 33.2%.

In the case of COc1cc(/C=C/C(=O)N2CCN(c3ccccc3)CC2)ccc1O, the IC50 (Acetylcholinesterase [3]) is reported as 29.3 µM and the inhibition [4] is reported as 37%.

COc1cc(/C=C/C(=O)NCC(=O)Nc2ccc(C(F)(F)F)cc2)ccc1O gave an IC50 (Acetylcholinesterase [3]) of 8.23 µM and an inhibition [4] of 37.2%.

COc1cc(/C=C/C(=O)NCC(=O)Nc2ccccc2Cl)ccc1O gave an IC50 (Acetylcholinesterase [3]) of 5.72 µM and an inhibition [4] of 47.4%.

Compound COc1cc(/C=C/C(=O)NCC(=O)Nc2ccc(Br)cc2)ccc1O has an IC50 (Acetylcholinesterase [3]) of 10.2 µM and an inhibition [4] of 39.3%.

COc1cc(/C=C/C(=O)NCC(=O)Nc2ccccc2F)ccc1O gave an IC50 (Acetylcholinesterase [3]) of 17.2 µM and an inhibition [4] of 31.9%.

Compound COc1cc(/C=C/C(=O)NCC(=O)Nc2ccccc2C)ccc1O has an IC50 (Acetylcholinesterase [3]) of 16.3 µM and an inhibition [4] of 36.8%.

COc1cc(/C=C/C(=O)NCC(=O)Nc2ccc(F)cc2)ccc1O gave an IC50 (Acetylcholinesterase [3]) of 12.9 µM and an inhibition [4] of 42.2%.

With COc1cc(/C=C/C(=O)NCC(=O)Nc2ccc3[nH]ccc3c2)ccc1O the Activity [5] was “Active”, the cytotoxicity at 24 h, 20 µM [6] was 4.39% and the Activity (Mus musculus [7]) was “Active”. The Activity (Mus musculus [8]) was “Active”, the Activity [9] was “Non-Toxic” and the Activity [10] was “Active”. For the same compound, the Activity [11] was “Non-Toxic”, the IC50 [12] was 57.4 µM and the Activity (Mus musculus [13]) was “Active”. For the same compound, the Activity (Mus musculus [14]) was “Active”, the Activity [15] was “Non-Toxic” and the Activity (Mus musculus [16]) was “Active”. The IC50 (Acetylcholinesterase [3]) was 5.74 µM, the inhibition [4] was 58.7% and the inhibition [17] was “Active”. For the same compound, the Activity (Homo sapiens) was “Active”, the IC50 (Cholinesterase) was 14 µM and the Activity [18] was “Non-Toxic”. The Activity [19] was 31.3%, the Activity [20] was “Non-Toxic” and the inhibition (Acetylcholinesterase [21]) was “Active”. For the same compound, the Activity (Mus musculus [22]) was “Active”, the Activity [23] was “Non-Toxic” and the Activity (Mus musculus [24]) was “Active”.

For COc1cc(/C=C/C(=O)NCC(=O)Nc2ccccc2)ccc1O, the IC50 (Acetylcholinesterase [3]) was 21.9 µM and the inhibition [4] was 38.2%.

In the case of COc1cc(/C=C/C(=O)O)ccc1O [FERULATE], the Activity (Mus musculus [25]) is reported as “Active”, the Activity (Mus musculus [26]) is reported as “Active” and the Activity (Mus musculus [27]) is reported as “inactive”. It also gave an IC50 [12] of 56.5 µM, an inhibition (Acetylcholinesterase [28]) of under 10% and an inhibition (Acetylcholinesterase [29]) of under 20%. For the same compound, the Activity (Mus musculus [30]) was “inactive”, the inhibition [4] was 19.7% and the Activity (Mus musculus [31]) was “inactive”. The Activity (Homo sapiens) was “Active”, the Activity (Mus musculus [32]) was “inactive” and the Activity [19] was 28.6%. For the same compound, the Activity (Mus musculus [33]) was “Active” and the inhibition [34] was under 20%.

In the case of COc1cc(/C=C/C(=O)NCC(=O)Nc2ccc(Cl)cc2)ccc1O, the IC50 [12] is reported as 101 µM, the IC50 (Acetylcholinesterase [3]) is reported as 3.43 µM and the inhibition [4] is reported as 46.9%. The Activity [19] was 16.7%.
